Laboratory results taken from ChEMBL document CHEMBL1127231, “The isolation and in vivo Potent Antitumor activity of clerodane diterpenoid from the oleoresin of the brazilian medicinal plant, copaifera langsdorfi desfon” (1994).

Experiments:
Format in all cases: functional
Mus musculus [1] = test: Antitumor activity was evaluated by the increase in life span (I.L.S) against IMC carcinoma in mice at a dose of 20.7 mg/kg
Mus musculus [2] = test: Antitumor activity was evaluated by the change in body weight against IMC carcinoma in mice at a dose of 20.7 mg/kg
Mus musculus [3] = test: Antitumor activity was evaluated by the change in life span (day) against IMC carcinoma in mice at a dose of 20.7 mg/kg
Mus musculus [4] = test: Antitumor activity was evaluated by the change in life span (day) against IMC carcinoma in mice at a dose of 30.0 mg/kg
Mus musculus [5] = test: Antitumor activity was evaluated by the increase in life span (I.L.S) against IMC carcinoma in mice at a dose of 30.0 mg/kg
Mus musculus [6] = test: Antitumor activity was evaluated by the change in body weight against IMC carcinoma in mice at a dose of 30.0 mg/kg
Mus musculus [7] = test: Antitumor activity was evaluated by the change in body weight against IMC carcinoma in mice at a dose of 9.0 mg/kg
Mus musculus [8] = test: Antitumor activity was evaluated by the change in life span (day) against IMC carcinoma in mice at a dose of 9.0 mg/kg
Mus musculus [9] = test: Antitumor activity was evaluated by the increase in life span (I.L.S) against IMC carcinoma in mice at a dose of 9.0 mg/kg
Mus musculus [10] = test: Antitumor activity was evaluated by the change in body weight against IMC carcinoma in mice at a dose of 1.8 mg/kg
Mus musculus [11] = test: Antitumor activity was evaluated by the change in life span (day) against IMC carcinoma in mice at a dose of 1.8 mg/kg
Mus musculus [12] = test: Antitumor activity was evaluated by the increase in life span (I.L.S) against IMC carcinoma in mice at a dose of 1.8 mg/kg
Mus musculus [13] = test: Antitumor activity was evaluated by the change in life span (day) against IMC carcinoma in mice at a dose of 0.27 mg/kg
Mus musculus [14] = test: Antitumor activity was evaluated by the change in body weight against IMC carcinoma in mice at a dose of 0.27 mg/kg
Mus musculus [15] = test: Antitumor activity was evaluated by the increase in life span (I.L.S) against IMC carcinoma in mice at a dose of 0.27 mg/kg
Mus musculus [16] = test: Antitumor activity was evaluated by the change in life span (day) against IMC carcinoma in mice at a dose of 77.6 mg/kg
Mus musculus [17] = test: Antitumor activity was evaluated by the increase in life span (I.L.S) against IMC carcinoma in mice at a dose of 77.6 mg/kg
Mus musculus [18] = test: Antitumor activity was evaluated by the change in body weight against IMC carcinoma in mice at a dose of 77.6 mg/kg
Mus musculus [19] = test: Antitumor activity was evaluated by the increase in life span (I.L.S) against IMC carcinoma in mice at a dose of 41.1 mg/kg
Mus musculus [20] = test: Antitumor activity was evaluated by the change in life span (day) against IMC carcinoma in mice at a dose of 41.1 mg/kg
Mus musculus [21] = test: Antitumor activity was evaluated by the change in body weight against IMC carcinoma in mice at a dose of 41.1 mg/kg

**Q.** With `C=C1CC[C@@H]2C(C)(C)CCC[C@@]2(C)[C@@H]1CC/C(C)=C/C(=O)O` [COPALIC ACID] as the compound, how does the ILS at 20.7 mg/kg (Mus musculus [1]) read?
**A.** The ILS at 20.7 mg/kg was 10%.

**Q.** And the “Change in body weight” value (Mus musculus [2])?
**A.** Its value is 1.5 g.

**Q.** What about the Life span (Mus musculus [3]) of the same compound?
**A.** The Life span was 14 days.

**Q.** `O=c1[nH]cc(F)c(=O)[nH]1` [FLUOROURACIL] was tested. Which Life span (Mus musculus [4]) did it give?
**A.** The Life span was 18.5 days.

**Q.** What about the ILS at 30 mg/kg (Mus musculus [5]) of the same compound?
**A.** The ILS at 30 mg/kg was 46%.

**Q.** And the “Change in body weight” value (Mus musculus [6])?
**A.** Its value is -1.8 g.

**Q.** With `C=C1CC[C@H]2C(C)(C)CCC[C@]2(C)[C@H]1CC/C(C)=C/CO` as the compound, how does the “Change in body weight” value (Mus musculus [7]) read?
**A.** Its value is 1.4 g.

**Q.** What about the Life span (Mus musculus [8]) of the same compound?
**A.** The Life span was 13 days.

**Q.** And the ILS at 9 mg/kg (Mus musculus [9])?
**A.** The ILS at 9 mg/kg was 2%.

**Q.** How did the “Change in body weight” value (Mus musculus [10]) turn out when `CC1=CCC[C@@H]2[C@@](C)(CC/C(C)=C/CO)[C@H](C)CC[C@]12C` was run?
**A.** Its value is 1.4 g.

**Q.** What about the Life span (Mus musculus [11]) of the same compound?
**A.** Its Life span is 12.3 days.

**Q.** What about the ILS at 1.8 mg/kg (Mus musculus [12]) of the same compound?
**A.** The ILS at 1.8 mg/kg was -3%.

**Q.** With `C=C1CCC[C@@H]2[C@](C)(CC/C(C)=C/CO)[C@@H](C)CC[C@]12C` as the compound, how does the Life span (Mus musculus [13]) read?
**A.** Its Life span is 11.7 days.

**Q.** And the “Change in body weight” value (Mus musculus [14])?
**A.** Its value is 1.9 g.

**Q.** What about the ILS at 0.27 mg/kg (Mus musculus [15]) of the same compound?
**A.** Its ILS at 0.27 mg/kg is -8%.

**Q.** Which results are given for `C[C@H]1CC[C@]2(C)C(C(=O)O)=CCC[C@H]2[C@]1(C)CCc1ccoc1`?
**A.** Life span (Mus musculus [16]): 14.8 days; ILS at 77.6 mg/kg (Mus musculus [17]): 17%; Change in body weight (Mus musculus [18]): 1.6 g

**Q.** With `CC1=CCC[C@@H]2[C@@](C)(CC/C(C)=C/CO)[C@H](C)CC[C@@]12C` as the compound, how does the ILS at 41.1 mg/kg (Mus musculus [19]) read?
**A.** Its ILS at 41.1 mg/kg is 98%.

**Q.** What about the Life span (Mus musculus [20]) of the same compound?
**A.** The Life span was 25.2 days.

**Q.** What about the “Change in body weight” value (Mus musculus [21]) of the same compound?
**A.** Its value is 0.1 g.
